Earlier results in patent US10711094B2, “Conjugated polymer nanoparticles, methods of using, and methods of making” (KING ABDULLAH UNIVERSITY OF SCIENCE AND TECHNOLOGY, priority 2015, dated 2020).

Details: in ethanol

For `O=C(O)c1ccccc1C1=c2cc3c4c(c2Oc2c1cc1c5c2CCCN5CCC1)CCC[N+]=4CCC3.[Cl-]` [Rhodamine 101], the “fluorescence quantum yield (Φfl) of reference dye” value is listed as 96%.
